Source: patent publication US20120101093A1, “SUBSTITUTED IMIDAZO[1,2-A]PYRIDINE DERIVATIVES, PHARMACEUTICAL COMPOSITIONS, AND METHODS OF USE AS BETA-SECRETASE INHIBITORS” (HIGH POINT PHARMACEUTICALS, LLC, priority 2009, published 2012)

These compounds were tested against T1, BACE-1 enzyme (Homo sapiens, UniProt P56817) (assay: BACE Fluorescence Resonance Energy Transfer (FRET) Assay). Settings: pH 4-4.5, 30 min pre-incubation, about 1.5 hours reaction.
T1 construct: purchased R & D Systems 931AS
Type: biochemical
Experimental: BACE Fluorescence Resonance Energy Transfer (FRET) Assay
In the following assay, the proteolytic activity of BACE is measured by observing cleavage of a fluorescent group from a peptide substrate containing a rhodamine fluorescent donor and a quenching acceptor.
The inhibitory activity of compounds of Formula (I) may be compared to a statine derived control inhibitor STA200 (MP Biomedical Cat. #STA-200). The cleavage reaction occurs when a BACE-1 substrate (Invitrogen, Cat. #P2986) was added to a reaction mixture containing BACE-1 enzyme (R & D Systems, Cat. #931AS) and allowed to proceed for about 1.5 hours. Fluorescence, used as a marker of BACE activity, is monitored using 540 nm excitation and 585 nm emission wavelengths (Envision, Perkin Elmer).
A typical assay reaction contains BACE-1 enzyme—in assay buffer (50 mM sodium acetate, pH 4-4.5, 0.01% CHAPS (3-[(3-Cholamidopropyl)dimethylammonio]-1-propanesulfonate), 0.0125% TritonX-100, 0.006% EDTA) which is pre-incubated for 30 minutes with test compound in 7.5% DMSO. The reaction is initiated with the addition of BACE-1 substrate in assay buffer and allowed to proceed for about 1.5 hours at room temperature. Assays are conducted in black 384-well microtiter plates and scanned at room temperature using 540 nm excitation and 585 nm emission wavelengths.
In some instances, the percent inhibition at a given concentration is reported instead of the IC50.

T1 sequence (P56817 46-457 limits assumed): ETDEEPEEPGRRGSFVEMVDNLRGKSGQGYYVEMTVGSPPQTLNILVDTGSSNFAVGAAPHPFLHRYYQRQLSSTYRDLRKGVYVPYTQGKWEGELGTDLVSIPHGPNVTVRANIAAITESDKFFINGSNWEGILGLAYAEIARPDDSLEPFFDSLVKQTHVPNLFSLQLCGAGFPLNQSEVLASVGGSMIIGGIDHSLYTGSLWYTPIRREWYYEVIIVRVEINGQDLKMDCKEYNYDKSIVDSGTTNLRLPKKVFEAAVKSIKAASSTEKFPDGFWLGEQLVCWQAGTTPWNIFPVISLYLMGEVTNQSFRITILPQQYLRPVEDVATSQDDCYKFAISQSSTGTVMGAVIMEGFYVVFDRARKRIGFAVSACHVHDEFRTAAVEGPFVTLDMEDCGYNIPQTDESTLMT

IC50 | SMILES
0.31 µM | CN1CCN(c2cc(F)cn3cc(C(=O)Nc4nc5cc(-c6cc(F)cc(Cl)c6)ccc5[nH]4)nc23)CC1 [Example 128, 6-Fluoro-8-(4-methyl-piperazin-1-yl)-imidazo[1,2-a]pyridine-2-carboxylic acid [5-(3-chloro-5-fluoro-phenyl)-1H-benzoimidazol-2-yl]-amide]
0.43 µM | CCOc1cc(F)cn2cc(C(=O)Nc3nc4cc(-c5cc(F)cc(Cl)c5)ccc4[nH]3)nc12 [Example 129, 8-Ethoxy-6-fluoro-imidazo[1,2-a]pyridine-2-carboxylic acid [5-(3-chloro-5-fluoro-phenyl)-1H-benzoimidazol-2-yl]-amide]
0.35 µM | O=C(Nc1nc2cc(-c3cc(F)cc(Cl)c3)ccc2[nH]1)c1cn2cc(F)cc(N3CCNCC3)c2n1 [Example 130, 6-Fluoro-8-piperazin-1-yl-imidazo[1,2-a]pyridine-2-carboxylic acid [5-(3-chloro-5-fluoro-phenyl)-1H-benzoimidazol-2-yl]-amide]
1.01 µM | CN(C)c1cc(F)cn2cc(C(=O)Nc3nc4cc(-c5cc(F)cc(Cl)c5)ccc4[nH]3)nc12 [Example 131, 8-Dimethylamino-6-fluoro-imidazo[1,2-a]pyridine-2-carboxylic acid [5-(3-chloro-5-fluoro-phenyl)-1H-benzoimidazol-2-yl]-amide]
1.04 µM | CNc1cc(F)cn2cc(C(=O)Nc3nc4cc(-c5cccc(OC(F)(F)F)c5)ccc4[nH]3)nc12 [Example 132, 6-Fluoro-8-methylamino-imidazo[1,2-a]pyridine-2-carboxylic acid [5-(3-trifluoromethoxy-phenyl)-1H-benzoimidazol-2-yl]-amide]
0.64 µM | CN(C)c1cc(F)cn2cc(C(=O)Nc3nc4cc(-c5cccc(OC(F)(F)F)c5)ccc4[nH]3)nc12 [Example 133, 8-Dimethylamino-6-fluoro-imidazo[1,2-a]pyridine-2-carboxylic acid [5-(3-trifluoromethoxy-phenyl)-1H-benzoimidazol-2-yl]-amide]
0.29 µM | O=C(Nc1nc2cc(-c3cccc(OC(F)(F)F)c3)ccc2[nH]1)c1cn2cc(F)cc(N3CCNCC3)c2n1 [Example 134, 6-Fluoro-8-piperazin-1-yl-imidazo[1,2-a]pyridine-2-carboxylic acid [5-(3-trifluoromethoxy-phenyl)-1H-benzoimidazol-2-yl]-amide]
0.2 µM | CN1CCN(c2cc(F)cn3cc(C(=O)Nc4nc5cc(-c6cccc(OC(F)(F)F)c6)ccc5[nH]4)nc23)CC1 [Example 135, 6-Fluoro-8-(4-methyl-piperazin-1-yl)-imidazo[1,2-a]pyridine-2-carboxylic acid [5-(3-trifluoromethoxy-phenyl)-1H-benzoimidazol-2-yl]-amide]
0.23 µM | COc1cc(F)cn2cc(C(=O)Nc3nc4cc(-c5cccc(OC(F)(F)F)c5)ccc4[nH]3)nc12 [Example 136, 6-Fluoro-8-methoxy-imidazo[1,2-a]pyridine-2-carboxylic acid [5-(3-trifluoromethoxy-phenyl)-1H-benzoimidazol-2-yl]-amide]
1.39 µM | CCOc1cccc2nc(C(=O)Nc3nc4cc(-c5cccc(C(F)(F)F)c5)ccc4[nH]3)cn12 [Example 137, 5-Ethoxy-imidazo[1,2-a]pyridine-2-carboxylic acid [5-(3-trifluoromethyl-phenyl)-1H-benzoimidazol-2-yl]-amide]
1.27 µM | COCCNc1cc(F)cn2cc(C(=O)Nc3nc4cc(-c5cc(F)cc(Cl)c5)ccc4[nH]3)nc12 [Example 138, 6-Fluoro-8-(2-methoxy-ethylamino)-imidazo[1,2-a]pyridine-2-carboxylic acid [5-(3-chloro-5-fluoro-phenyl)-1H-benzoimidazol-2-yl]-amide]
0.48 µM | COCCCNc1cc(F)cn2cc(C(=O)Nc3nc4cc(-c5cc(F)cc(Cl)c5)ccc4[nH]3)nc12 [Example 139, 6-Fluoro-8-(3-methoxy-propylamino)-imidazo[1,2-a]pyridine-2-carboxylic acid [5-(3-chloro-5-fluoro-phenyl)-1H-benzoimidazol-2-yl]-amide]
0.25 µM | COCCOc1cc(F)cn2cc(C(=O)Nc3nc4cc(-c5cc(F)cc(Cl)c5)ccc4[nH]3)nc12 [Example 140, 6-Fluoro-8-(2-methoxy-ethoxy)-imidazo[1,2-a]pyridine-2-carboxylic acid [5-(3-chloro-5-fluoro phenyl)-1H-benzoimidazol-2-yl]-amide]
0.66 µM | CN(C)CCOc1cc(F)cn2cc(C(=O)Nc3nc4cc(-c5cc(F)cc(Cl)c5)ccc4[nH]3)nc12 [Example 141, 8-(2-Dimethylamino-ethoxy)-6-fluoro-imidazo[1,2-a]pyridine-2-carboxylic acid [5-(3-chloro-5-fluoro-phenyl)-1H-benzoimidazol-2-yl]-amide]
0.34 µM | CN(C)CCOc1cc(Cl)cn2cc(C(=O)Nc3nc4cc(-c5cc(F)cc(Cl)c5)ccc4[nH]3)nc12 [Example 142, 6-Chloro-8-(2-dimethylamino-ethoxy)-imidazo[1,2-a]pyridine-2-carboxylic acid [5-(3-chloro-5-fluoro-phenyl)-1H-benzoimidazol-2-yl]-amide]
1.06 µM | O=C(Nc1nc2cc(-c3cc(F)cc(Cl)c3)ccc2[nH]1)c1cn2cc(Cl)cc(Cl)c2n1 [Example 143, 6,8-Dichloro-imidazo[1,2-a]pyridine-2-carboxylic acid [5-(3-chloro-5-fluoro-phenyl)-1H-benzoimidazol-2-yl]-amide]
0.55 µM | Cc1cc(Cl)c2nc(C(=O)Nc3nc4cc(-c5cc(F)cc(Cl)c5)ccc4[nH]3)cn2c1 [Example 144, 8-Chloro-6-methyl-imidazo[1,2-a]pyridine-2-carboxylic acid [5-(3-chloro-5-fluoro-phenyl)-1H-benzoimidazol-2-yl]-amide]
0.52 µM | O=C(Nc1nc2cc(-c3cc(F)cc(Cl)c3)ccc2[nH]1)c1cn2cc(F)cc(OCCN3CCOCC3)c2n1 [Example 145, 6-Fluoro-8-(2-morpholin-4-yl-ethoxy)-imidazo[1,2-a]pyridine-2-carboxylic acid [5-(3-chloro-5-fluoro-phenyl)-1H-benzoimidazol-2-yl]-amide]
0.32 µM | Cc1cc(OCCN(C)C)c2nc(C(=O)Nc3nc4cc(-c5cc(F)cc(Cl)c5)ccc4[nH]3)cn2c1 [Example 146, 8-(2-Dimethylamino-ethoxy)-6-methyl-imidazo[1,2-a]pyridine-2-carboxylic acid [5-(3-chloro-5-fluoro-phenyl)-1H-benzoimidazol-2-yl]-amide]
0.41 µM | O=C(Nc1nc2cc(-c3cc(F)cc(Cl)c3)ccc2[nH]1)c1cn2cc(F)cc(OCCN3CCCCC3)c2n1 [Example 147, 6-Fluoro-8-(2-piperidin-1-yl-ethoxy)-imidazo[1,2-a]pyridine-2-carboxylic acid [5-(3-chloro-5-fluoro-phenyl)-1H-benzoimidazol-2-yl]-amide]
0.39 µM | CN1CCN(CCOc2cc(F)cn3cc(C(=O)Nc4nc5cc(-c6cc(F)cc(Cl)c6)ccc5[nH]4)nc23)CC1 [Example 148, 6-Fluoro-8-[2-(4-methyl-piperazin-1-yl)-ethoxy]-imidazo[1,2-a]pyridin-2-carboxylic acid [5-(3-chloro-5-fluoro-phenyl)-1H-benzoimidazol-2-yl]-amide]
